# Measured values as given in the supplement of paper PMC10307832.
# Tests used:
# Assay in all cases: relative viability (nuclei count vs DMSO), 5 days (fraction); higher = more cells survive
# Avagacestat + Navitoclax = compound: NC(=O)[C@@H](CCC(F)(F)F)N(Cc1ccc(-c2ncon2)cc1F)S(=O)(=O)c1ccc(Cl)cc1 [Avagacestat] + CC1(C)CCC(c2ccc(Cl)cc2)=C(CN2CCN(c3ccc(C(=O)NS(=O)(=O)c4ccc(N[C@H](CCN5CCOCC5)CSc5ccccc5)c(S(=O)(=O)C(F)(F)F)c4)cc3)CC2)C1 [Navitoclax] (partner 0.5 µM)
# How it was run: (§1)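 Cells from lung cancer lines were seeded into 1536-well plates and, one day later, dosed by pin tool. Treatments were either a single drug or a fixed dose of an anchor drug with five library-drug doses (not always all listed) in √10 steps. After 5 days, nuclei were stained in a one-step fixation (final 0.05% Triton X-100, 1% formaldehyde, 1 ug/ml Hoechst) and counted on 4× images, and relative viability is the treated-to-vehicle nuclei ratio, as the median of duplicate plates.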
# Avagacestat + Linsitinib = compound: NC(=O)[C@@H](CCC(F)(F)F)N(Cc1ccc(-c2ncon2)cc1F)S(=O)(=O)c1ccc(Cl)cc1 [Avagacestat] + C[C@]1(O)C[C@@H](c2nc(-c3ccc4ccc(-c5ccccc5)nc4c3)c3c(N)nccn32)C1 [Linsitinib] (partner 1 µM)
# How it was run: as §1
# Avagacestat + Foretinib = compound: NC(=O)[C@@H](CCC(F)(F)F)N(Cc1ccc(-c2ncon2)cc1F)S(=O)(=O)c1ccc(Cl)cc1 [Avagacestat] + COc1cc2c(Oc3ccc(NC(=O)C4(C(=O)Nc5ccc(F)cc5)CC4)cc3F)ccnc2cc1OCCCN1CCOCC1 [Foretinib] (partner 0.25 µM)
# How it was run: as §1
# Avagacestat + Luminespib = compound: NC(=O)[C@@H](CCC(F)(F)F)N(Cc1ccc(-c2ncon2)cc1F)S(=O)(=O)c1ccc(Cl)cc1 [Avagacestat] + CCNC(=O)c1noc(-c2cc(C(C)C)c(O)cc2O)c1-c1ccc(CN2CCOCC2)cc1 [Luminespib] (partner 0.01 µM)
# How it was run: as §1
Cell Line,relative viability (Avagacestat + Navitoclax; first compound 0.08 µM),relative viability (Avagacestat + Navitoclax; first compound 0.253 µM),relative viability (Avagacestat + Navitoclax; first compound 0.8 µM),relative viability (Avagacestat + Navitoclax; first compound 2.53 µM),relative viability (Avagacestat + Navitoclax; first compound 8 µM),relative viability (Avagacestat + Linsitinib; first compound 0.08 µM),relative viability (Avagacestat + Linsitinib; first compound 0.253 µM),relative viability (Avagacestat + Linsitinib; first compound 0.8 µM),relative viability (Avagacestat + Linsitinib; first compound 2.53 µM),relative viability (Avagacestat + Linsitinib; first compound 8 µM),relative viability (Avagacestat + Foretinib; first compound 0.08 µM),relative viability (Avagacestat + Foretinib; first compound 0.253 µM),relative viability (Avagacestat + Foretinib; first compound 0.8 µM),relative viability (Avagacestat + Foretinib; first compound 2.53 µM),relative viability (Avagacestat + Foretinib; first compound 8 µM),relative viability (Avagacestat + Luminespib; first compound 0.08 µM),relative viability (Avagacestat + Luminespib; first compound 0.253 µM),relative viability (Avagacestat + Luminespib; first compound 0.8 µM),relative viability (Avagacestat + Luminespib; first compound 2.53 µM),relative viability (Avagacestat + Luminespib; first compound 8 µM)
201T,1.19,1.21,1.25,1.19,1.18,1.02,1.07,1.13,0.985,0.99,1.18,1.45,1.06,0.944,1.1,1.11,1.05,1,0.964,1.04
A549,1.64,1.65,1.27,1.26,1.25,0.826,0.582,0.58,0.571,0.459,1.01,1.15,1.01,1.01,0.878,,,,,
A-427,0.994,0.99,1.03,0.967,0.968,1.11,1.24,1.16,1.15,1.22,1.37,1.18,1.12,1.11,1.08,0.91,1.13,1.05,0.81,0.821
ABC-1,,,,,,0.979,1.06,0.866,0.786,0.737,1.16,1.06,1.15,1,1.06,0.387,0.583,0.801,0.359,0.555
BEN,0.0581,0.0757,0.141,0.061,0.0756,0.898,1.07,1.02,0.76,0.847,0.692,0.694,0.725,0.74,0.62,0.396,0.308,0.675,0.326,0.238
CAL-12T,1.52,1.44,1.3,1.32,1.22,0.94,0.865,0.931,0.768,0.693,1.35,1.25,1.24,1.02,1.16,0.351,0.921,0.427,0.364,0.276
COR-L23,1.57,1.31,1.04,1,0.814,1.21,0.896,0.869,0.764,0.573,1.12,1.28,1.1,0.901,0.952,1.08,0.803,1.08,0.642,0.512
COR-L 105,0.851,0.604,0.779,0.595,0.648,0.99,0.972,0.59,0.964,0.755,1.17,1.25,1.36,0.927,0.698,1.02,1.01,0.798,0.542,0.754
Calu-6,1.07,0.99,0.922,1.06,0.81,1.05,1.04,1.07,1.03,0.784,1.12,0.949,0.979,0.905,0.845,,,,,
ChaGo-K-1,0.987,0.926,1.32,1.24,1.17,,,,,,0.935,1,0.856,0.825,0.786,0.551,0.718,0.747,0.551,0.595
EKVX,1.12,1.15,1.04,0.792,0.853,1.22,0.996,1.25,0.847,0.703,0.859,0.742,1.08,0.798,0.795,0.798,0.973,0.859,0.809,0.751
EMC-BAC-2,1.46,1.54,1.38,1.1,1.17,0.882,0.953,0.84,0.738,0.784,1.06,1.09,1.06,0.904,0.968,1.33,1.4,1.29,1.12,1.1
EPLC-272H,1.51,1.13,1.32,1.21,0.964,1.4,1.2,1.4,1.32,0.933,0.72,0.662,0.825,0.602,0.661,0.21,0.267,0.139,0.153,0.304
H3255,0.504,0.59,0.71,0.431,0.498,1.02,1.17,0.975,0.899,0.898,0.857,0.913,0.934,0.891,0.949,1.02,0.951,0.941,1.05,0.847
HARA,1.39,1.27,1.23,1.17,1.2,1.29,1.28,1.01,0.79,0.907,1.1,1.39,0.863,0.867,0.77,0.783,0.201,0.614,0.536,0.87
HCC-15,0.87,0.806,0.799,0.732,0.591,0.985,0.998,0.874,0.936,0.755,1.14,1.16,1.15,0.958,1.01,0.442,0.338,0.309,0.325,0.284
HCC-44,1.14,1.13,0.948,0.76,0.874,0.703,0.709,0.681,0.504,0.598,,,,,,1.21,1.36,1.14,0.885,1.25
